Laboratory results reported in patent US20120252037A1, “STIMULATORY AUTO-ANTIBODIES TO THE PDGF RECEPTOR AS PATHOLOGY MARKER AND THERAPEUTIC TARGET” (priority 2005, published 2012).
Read-outs that look alike come from different tables or passages of the source. Each block holds one compound with its values, some of them ahead of it. Peptide text beside a SMILES is read from it. * marks the point of attachment. Cbz = O=C(OCc1ccccc1)*

Columns and labels:
normal human fibroblasts = assay: ROS (DCF fluorescence) in normal human fibroblasts; assay type: cell-based; conditions: for effect on ROS induction by SSc IgG in normal fibroblasts: FIG. 2A, pre-incubation for 2 hours (AG1478 2 μM, FT-277 20 μM, PD98059 40 μM)
Procedure: (§1) Fluorimetric determination of intracellular ROS generated by adherent fibroblasts was estimated after loading the cells with 2′,7′-dichlorofluorescein diacetate (DCFH-DA 10 μM, Molecular Probes, PoortGebouw, The Nederlands) for 15 min at 37° C. The DCF fluorescence intensity was measured by a CytoFluor plate reader (PerkinElmer, Wallac, Finland) (excitation wavelength, 485 nm; emission wavelength, 530 nm) (8). Ten measurements were made in each single well from ten distinct points and the values averaged. Each IgG sample was run in duplicate and the average has been recorded. The results are expressed as DCF fluorescence intensity calculated subtracting from the DCF fluorescence intensity of the test IgG the DCF fluorescence intensity of a negative control obtained by cell cultured without IgG. The intra-plate and the inter-plate coefficient of variation was less than 3%. The samples were recorded as positive if the SI was greater than the mean plus three standard deviations of the normal group.
In selected experiments ROS generation was evaluated after the addition of PDGF receptor tyrosine kinase inhibitor (AG 1296; 2 μM for 2 hours), Epidermal growth factor (EGF) receptor tyrosine kinase inhibitor (AG 1478; 2 μM for 2 hours), a chemical inhibitor of ERK 1/2 signalling (PD 98059; 40 μM for 2 hours), and a farnesyl protein transferase inhibitor to block Ras farnesylation (FTI-277; 20 μM for 2 hours). AG 1296, AG 1478, PD 98059 and FTI-277 were obtained from Calbiochem (San Diego, Calif.).
Fluorimetric determination of intracellular ROS generated by fibroblasts was estimated after loading the cells with DCFH-DA (10 μM) for 15 min at 37° C. before assessing DCF fluorescence level (15). Superoxide anion release was estimated using the superoxide dismutase-inhibitable cytochrome c reduction (12). H2O2 release from fibroblasts into the overlying medium was assayed using a modification of the method of Valletta and Berton (1987) (16). Oxidative activity imaging in living, transfected cells was evaluated as described (12, 17).

Ha-Ras = Ha-Ras / Ki-Ras protein levels in primary fibroblasts (immunoprecipitation, immunoblot, immunofluorescence, FACS); assay type: cell-based, human; conditions: for effect on Ha-Ras induction by PDGF / effect on Ha Ras levels: primary fibroblasts
Procedure: Ras proteins were immunoprecipitated from cultured fibroblasts with polyclonal anti pan Ras antibody (Santa Cruz Biotechnology, Santa Cruz, Calif.) following recommended procedures from the manufacturer.
Fibroblasts, cultured on Lab-Tek chamber glass slides (Nalge-Nunc, Ill., USA) and starved 48 h before stimulation or addition of inhibitors, were fixed 4% para-formaldheide, permeabilized by 0.1% Triton-X, and stained with a monoclonal antibody against Ha-Ras and then with a tetramethylrhodamine-isothiocyanate (TRITC) conjugated secondary antibody (Molecular Probes, NL). Slides were mounted with Vectarshield (H-100; Vector, Burlingame, Calif.) and examined using a BioRad (Hemel Hempstead, UK) microradiance confocal laser-scanning microscope equipped with argon and helium/neon lasers. Acquired images were analysed using the Laser Sharp Processing BioRad software (version 3.2). All images from different slides condition were acquired in double-blinded fashion.
Cells were grown to semiconfluency in 60 mm culture dishes. After trypsin detachment, 5×10^5 cells were suspended in 1 ml of phosphate buffered saline (PBS) and fixed overnight with 1% formaldehyde at room temperature. Next, cells were permeabilized with 0.1% Triton×100 for 40 min at 4° C., washed 4 times with 2 ml of PBS containing 2% FBS, 0.01% NaN3, 0.1% Triton×100 (buffer A), and incubated for 45 min at 4° C. with 1:50 dilution of monoclonal and polyclonal anti HaRas antibodies (Santa Cruz Biotechnology, Santa Cruz, Calif., USA). The cells were then washed twice with the same buffer and incubated for 45 min at 4° C. with Cy2-conjugated anti-mouse IgG antibodies (Amersham Pharmacia Biotech, Milano, Italia) at 1:50 dilution. Control cells were incubated with Cy2-conjugated anti mouse IgG antibodies alone. After two washes in buffer A, cells were resuspended in PBS and analyzed by flow cytometry using FACScan (BD, Heidelberg, Germany) and WinMDI software.

[1] = target: T1, PDGFR α subunit expressed by Fα cells (Homo sapiens, UniProt P16234); assay: Bio-assay for anti PDGFR autoantibodies: ROS production (DCF fluorescence) in Fα cells; assay type: cell-based, mouse; conditions: pre-incubation 2 μM for 2 hours
T1 construct: expressed in transfected cells; host or cells: mouse embryo fibroblasts from PDGF receptor knock-out embryos (F-/-) infected with PDGFR α (Fα cells)
Procedure: Patients and control serum samples were tested for the presence of PDGFR activating autoantibodies in a functional bioassay based on the production of ROS by mouse embryo fibroblasts infected with PDGFR α and/or β subunits and exposed in vitro to immunopurified IgG. Control cells were F−/− cells devoid of PDGFR. In brief, cells were plated in duplicate at a density of 30,000 cells in 1.83-cm^2 wells and incubated for 24 hours at 37° C. in 0.2 percent fetal calf serum. The cells were then washed with phosphate-buffered saline and incubated with a pre-determined amount of control or patient IgG for 15 minutes at 37° C. before ROS production determination.
as §1, with “Ten measurements were made in each single well from ten distinct points and the values averaged.” left out, “The intra-plate and the inter-plate coefficient of variation was less than 3%. The samples were recorded as positive if the SI was greater than the mean plus three standard deviations of the normal group.” left out

ERK1/2 = assay: P-ERK1/2 immunoblot in primary fibroblasts; assay type: cell-based, human; conditions: for effect on ERK1/2 activated by PDGF: NAC 20 mM 5 h, DPI 20 μM 1 h, FIG. 5E
Procedure: Cell culture plates were lysed with 0.3 ml of cold RIPA buffer (1×PBS, 1% Nonidet P-40, 0.5% sodium deoxycholate, 0.1% SDS, 2 mM sodium orthovanadate, 2 μg/ml aprotinin, 1 mM PMSF) and processed for immunoblotting as described (8).
Cell culture plates were lysed with 0.3 ml of cold RIPA buffer (1×PBS, 1% Nonidet P-40, 0.5% sodium deoxycholate, 0.1% SDS, 2 mM sodium orthovanadate, 2 μg/ml aprotinin, 1 mM PMSF) and processed as described (14).

SSc fibroblasts = assay: Oxidative stress-induced apoptosis in scleroderma fibroblasts; assay type: cell-based, human; conditions: H2O2, pre-treatment, FIG. 8C
Procedure: Normal and scleroderma fibroblasts were grown to 80-90% confluence and treated for 2 h with different concentrations of H2O2. When needed, cells were preincubated 30 min with PD 98059 (40 μmol/L).
(§2) Six hours after the removal of the stimulus, apoptosis was detected by FACS analysis using annexin V-Cy3 (Clontech, Palo Alto Calif.). Statistical analysis

PDGF receptor = PDGF receptor level in primary fibroblast extracts (immunoblot); assay type: cell-based, human; conditions: independently on ERK1/2 activation; FIG. 5D
Procedure: D. PDGF induction of Ha-Ras is mediated by ERK1/2. Fibroblasts, incubated in 0.2% FCS for 48 h, were treated with the MEK inhibitors, PD98059 (40 μM) 2 h, before the treatment with PDGF (15 ng/ml).

[2] = system: Umbilical vein endothelial cells; assay: Apoptosis of umbilical vein endothelial cells (annexin V FACS); assay type: cell-based; conditions: overnight; SSc IgG 200 μg/ml, PDGF 15 ng/ml; FIG. 3C
Procedure: Endothelial cells will be isolated from umbilical cord. Cells were stimulated with SSc IgG (200 μg/ml), normal IgG (200 μg/ml) and PDGF (15 ng/ml) for 12 hours in the presence and in the absence of inhibitors of PDGFR and EGFR tyrosine kinase activity.
as §2

PDGFR = target: T2, PDGFR (Homo sapiens, UniProt P09619); assay: Tyrosine phosphorylation of the PDGFR in normal fibroblasts; assay type: cell-based; conditions: FIG. 2D and data not shown
T2 construct: endogenous in cells; host or cells: normal human fibroblasts
Procedure: Panel D. Normal human fibroblasts were stimulated with SSc IgG (200 μg/ml for 15 min), PDGF (15 ng/ml for 15 min) or grown in FCS 0.2%. Cell lysates were immunoprecipitated with a polyclonal antibody against PDGFR (subunit β) and the immunoblots were developed with a specific antibody against phosphorylated tyrosine.

[3] = 90 min in the presence of genistein, data not shown

T1 sequence (P16234 24-1089): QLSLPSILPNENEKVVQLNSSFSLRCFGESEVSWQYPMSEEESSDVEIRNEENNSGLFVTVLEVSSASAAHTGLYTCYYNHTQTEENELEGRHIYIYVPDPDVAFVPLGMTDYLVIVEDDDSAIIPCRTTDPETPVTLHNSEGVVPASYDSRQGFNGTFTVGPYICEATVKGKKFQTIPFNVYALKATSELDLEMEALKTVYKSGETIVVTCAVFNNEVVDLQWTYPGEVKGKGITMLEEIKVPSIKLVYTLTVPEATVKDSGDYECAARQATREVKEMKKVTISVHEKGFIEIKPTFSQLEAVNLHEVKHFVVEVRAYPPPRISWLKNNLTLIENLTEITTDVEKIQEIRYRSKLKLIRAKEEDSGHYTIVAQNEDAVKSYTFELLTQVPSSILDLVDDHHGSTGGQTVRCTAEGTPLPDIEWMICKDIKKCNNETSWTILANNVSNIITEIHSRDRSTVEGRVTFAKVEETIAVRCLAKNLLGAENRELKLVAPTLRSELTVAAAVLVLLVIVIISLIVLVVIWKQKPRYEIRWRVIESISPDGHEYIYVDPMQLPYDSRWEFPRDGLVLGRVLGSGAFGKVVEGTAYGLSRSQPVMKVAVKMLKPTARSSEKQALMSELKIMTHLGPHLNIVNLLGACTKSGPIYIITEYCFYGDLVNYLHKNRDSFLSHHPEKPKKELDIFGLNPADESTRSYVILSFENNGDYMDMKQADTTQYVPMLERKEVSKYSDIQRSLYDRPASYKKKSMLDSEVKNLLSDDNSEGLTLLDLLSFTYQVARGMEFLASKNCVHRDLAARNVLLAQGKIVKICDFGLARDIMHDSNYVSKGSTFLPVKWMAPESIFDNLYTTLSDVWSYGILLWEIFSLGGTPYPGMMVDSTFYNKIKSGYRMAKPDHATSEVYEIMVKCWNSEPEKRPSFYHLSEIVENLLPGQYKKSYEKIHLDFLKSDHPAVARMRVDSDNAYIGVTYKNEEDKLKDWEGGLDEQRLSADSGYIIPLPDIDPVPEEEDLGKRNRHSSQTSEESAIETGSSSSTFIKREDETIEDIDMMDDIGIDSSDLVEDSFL
T2 sequence (P09619 33-1106): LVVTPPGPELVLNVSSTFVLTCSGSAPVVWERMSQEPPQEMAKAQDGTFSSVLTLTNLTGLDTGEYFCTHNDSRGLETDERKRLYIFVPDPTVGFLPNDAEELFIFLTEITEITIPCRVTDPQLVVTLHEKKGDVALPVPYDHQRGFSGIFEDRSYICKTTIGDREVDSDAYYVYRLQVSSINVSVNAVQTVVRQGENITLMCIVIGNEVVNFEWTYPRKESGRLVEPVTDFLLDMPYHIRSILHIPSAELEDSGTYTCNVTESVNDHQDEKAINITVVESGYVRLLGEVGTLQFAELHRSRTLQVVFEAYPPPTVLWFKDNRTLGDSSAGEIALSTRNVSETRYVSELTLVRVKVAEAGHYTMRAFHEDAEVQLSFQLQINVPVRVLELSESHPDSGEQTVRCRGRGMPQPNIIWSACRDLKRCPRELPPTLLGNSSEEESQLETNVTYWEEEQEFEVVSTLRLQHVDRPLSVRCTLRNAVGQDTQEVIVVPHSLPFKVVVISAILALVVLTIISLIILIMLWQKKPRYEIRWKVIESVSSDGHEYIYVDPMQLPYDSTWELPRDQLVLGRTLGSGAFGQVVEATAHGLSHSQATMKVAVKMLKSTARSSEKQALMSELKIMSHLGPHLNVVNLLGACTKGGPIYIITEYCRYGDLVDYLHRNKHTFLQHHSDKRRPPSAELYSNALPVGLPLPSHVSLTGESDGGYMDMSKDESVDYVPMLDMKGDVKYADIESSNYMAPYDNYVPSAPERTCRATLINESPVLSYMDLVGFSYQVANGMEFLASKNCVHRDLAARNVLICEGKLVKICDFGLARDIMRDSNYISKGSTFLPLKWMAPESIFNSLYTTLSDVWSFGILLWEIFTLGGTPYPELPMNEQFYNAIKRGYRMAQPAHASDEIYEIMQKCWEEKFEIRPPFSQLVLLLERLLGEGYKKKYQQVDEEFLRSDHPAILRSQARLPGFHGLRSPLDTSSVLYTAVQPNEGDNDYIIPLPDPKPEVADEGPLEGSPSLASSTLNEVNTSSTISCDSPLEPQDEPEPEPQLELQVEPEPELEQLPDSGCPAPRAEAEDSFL

Compound: COc1cc2ncc(-c3ccccc3)nc2cc1OC [AG 1296]
effect on ROS induced in Fα cells incubated with SSc IgG [1]: inhibited

Compound: c1ccc2c(c1)[I+]c1ccccc1-2 [DPI, diphenylene iodonium]
effect on ERK1/2 activated by PDGF (ERK1/2): sensitive | effect on Ha-Ras induction by PDGF (Ha-Ras; PDGF 15 ng/ml): significantly inhibited

Compound: COC(=O)[C@H](CCSC)NC(=O)c1ccc(NC[C@@H](N)CS)cc1-c1ccccc1 [FTI-277]
effect on ROS induction by SSc IgG in normal fibroblasts (normal human fibroblasts): prevented

Compound: OO [H2O2]
Ha Ras induction in the presence of genistein (Ha-Ras; FIG. 6D): powerful inducer

Compound: CC(C)C[C@@H](C=O)NC(=O)[C@H](CC(C)C)NC(=O)[C@H](CC(C)C)NC(=O)OCc1ccccc1 [MG132] (Cbz-Leu-Leu-Leu-aldehyde)
effect on Ha Ras when administered with PDGF or H2O2 (Ha-Ras; FIG. 6E): not additive | effect on Ha Ras levels (Ha-Ras; FIG. 6E): induced

Compound: CC(=O)N[C@@H](CS)C(=O)O [NAC, N-acetyl-L-cysteine]
effect on ERK1/2 activated by PDGF (ERK1/2): sensitive | effect on Ha-Ras induction by PDGF (Ha-Ras; PDGF 15 ng/ml): significantly inhibited

Compound: N#CC(=C(/N)Sc1ccccc1N)/C(C#N)=C(\N)Sc1ccccc1N [U0126]
effect on induction of Ha-Ras by H2O2 (Ha-Ras): abolished

Compound: C[C@@H]1C[C@@H]([C@H](O)CC2CC(=O)NC(=O)C2)C(=O)[C@@H](C)C1 [cycloheximide]
effect on Ha-Ras induction by PDGF (Ha-Ras; PDGF 15 ng/ml): did not prevent

Compound: O=c1c(-c2ccc(O)cc2)coc2cc(O)cc(O)c12 [genistein]
effect on ERK1/2 induced by H2O2, longer incubation (ERK1/2; [3]): inhibited | effect on Ha-Ras induced by H2O2, longer incubation (Ha-Ras; [3]): inhibited | effect on Ha-Ras induction by PDGF (Ha-Ras; PDGF 15 ng/ml): inhibited

Compound: CC[C@@]1([C@@H]2O[C@@H]([C@H]3O[C@@](O)(CO)[C@H](C)C[C@@H]3C)C[C@@H]2C)CC[C@H]([C@]2(C)CC[C@]3(C[C@H](O)[C@@H](C)[C@@H]([C@@H](C)[C@@H](OC)[C@H](C)C(=O)O)O3)O2)O1 [monensin]
effect on Ha Ras levels (Ha-Ras; FIG. 6E): no effect

Compound: PDGF
PDGF receptor level (PDGF receptor): down-regulated | duration of induced ROS (return to baseline) (normal human fibroblasts; discussion, cells not given): 15 to 30 min | induction of endothelial cell apoptosis [2]: unable to induce apoptosis | duration of PDGFR tyrosine phosphorylation (PDGFR): 15 min | half-life of Ha-Ras protein induced by PDGF (Ha-Ras; estimated from several experiments): approximately 40 min | Ki-Ras decay time (Ha-Ras; of PDGF stimulation, FIG. 4A): 3 h | time after stimulation at which Ha-Ras decreased to the initial levels (Ha-Ras; primary human fibroblasts, growth factor still present): 120 min | PDGF stimulation time sufficient to induce Ha-Ras protein (Ha-Ras; quiescent primary human fibroblasts, PDGF 15 ng/ml): 15 min

Compound: cyclodextrin
effect on Ha-Ras induction by PDGF (Ha-Ras; PDGF 15 ng/ml): did not abolish

Now from value to compound, other results behind:

effect on Ha-Ras induced by SSc IgG (Ha-Ras; normal human fibroblasts, FIG. 2B, inhibitor for 2 h): slight inhibition
Compound: COc1cc2ncnc(Nc3cccc(Cl)c3)c2cc1OC [AG1478]
effect on ROS induction by SSc IgG in normal fibroblasts (normal human fibroblasts): prevented

effect on induction of Ha-Ras by H2O2 (Ha-Ras; PD 98059 2 h, U0126 15 min incubation, FIGS. 6A, 6B): abolished | effect on Ha-Ras induction by PDGF (Ha-Ras; PDGF 15 ng/ml): inhibited
Compound: COc1cccc(-c2cc(=O)c3ccccc3o2)c1N [PD98059]
effect on oxidative stress-induced apoptosis (SSc fibroblasts): inhibited | effect on ROS induction by SSc IgG in normal fibroblasts (normal human fibroblasts): prevented
